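All cell lines were grown in 96-well plates and treated with compound for 48 hours. GI50 = concentration required for 50% inhibition of growth.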 Active and inactive are the calls of the source. Cut-off read from the data, not from the text of the source: active = GI50 up to about 1.1 µM and inactive = higher.
What was measured:
Assay in all cases: DTP human tumour cell line panel, 48 h
SF-295 = tested on: SF-295
NCI-H226 = tested on: NCI-H226
HCT-116 = tested on: HCT-116
EKVX = tested on: EKVX
OVCAR-3 = tested on: OVCAR-3
ACHN = tested on: ACHN
OVCAR-5 = tested on: OVCAR-5
786-0 = tested on: 786-0
COLO 205 = tested on: COLO 205
HCT-15 = tested on: HCT-15
MDA-MB-435 = tested on: MDA-MB-435
SK-MEL-2 = tested on: SK-MEL-2
CAKI-1 = tested on: CAKI-1
TK-10 = tested on: TK-10
OVCAR-4 = tested on: OVCAR-4
T47D = tested on: T47D
SW-620 = tested on: SW-620
SK-MEL-5 = tested on: SK-MEL-5
SF-539 = tested on: SF-539
A498 = tested on: A498

SMILES | GI50 (SF-295) | GI50 (NCI-H226) | GI50 (HCT-116) | GI50 (EKVX) | GI50 (OVCAR-3) | GI50 (ACHN) | GI50 (OVCAR-5) | GI50 (786-0) | GI50 (COLO 205) | GI50 (HCT-15) | GI50 (MDA-MB-435) | GI50 (SK-MEL-2) | GI50 (CAKI-1) | GI50 (TK-10) | GI50 (OVCAR-4) | GI50 (T47D) | GI50 (SW-620) | GI50 (SK-MEL-5) | GI50 (SF-539) | GI50 (A498)
c1ccc2c[n+](CCCC[n+]3ccc4ccccc4c3)ccc2c1 | > 100 µM (inactive) | > 100 µM (inactive) | > 100 µM (inactive) | > 100 µM (inactive) | > 100 µM (inactive) | > 100 µM (inactive) | > 100 µM (inactive) | > 100 µM (inactive) | > 100 µM (inactive) | > 100 µM | > 100 µM (inactive) | > 100 µM (inactive) | > 100 µM (inactive) | > 100 µM (inactive) | > 100 µM (inactive) | > 100 µM (inactive) | > 100 µM (inactive) | > 100 µM (inactive) | > 100 µM (inactive) | > 100 µM (inactive)
CC1(C)[C@@H]2CC[C@@]1(C)[C@H](O)[C@@H]2SCc1ccccc1 | 18.1 µM (inactive) | 18.7 µM (inactive) | 17.2 µM (inactive) | 15.3 µM (inactive) | 17.1 µM (inactive) | 11.7 µM (inactive) | 17 µM (inactive) | 17 µM (inactive) | 17.8 µM (inactive) | 14.8 µM | 18.2 µM (inactive) | 18.1 µM (inactive) | 25.1 µM (inactive) | 22.6 µM (inactive) | 12.9 µM (inactive) | 24 µM (inactive) | 25.5 µM (inactive) | 15.4 µM (inactive) | 17.8 µM (inactive) | < 0.01 µM (active)
O=C(/C=C/c1ccccc1)CCC1C(=O)NC(=S)NC1=O | > 100 µM (inactive) | > 100 µM (inactive) | > 100 µM (inactive) | – | > 100 µM (inactive) | > 100 µM (inactive) | > 100 µM (inactive) | > 100 µM (inactive) | > 100 µM (inactive) | > 100 µM | > 100 µM (inactive) | > 100 µM (inactive) | 26.5 µM (inactive) | – | – | > 100 µM (inactive) | > 100 µM (inactive) | > 100 µM (inactive) | > 100 µM (inactive) | > 100 µM (inactive)
COc1ccc2c(c1)C(N)=C(c1ccccc1)C2=O | 97.1 µM (inactive) | 87.9 µM (inactive) | 58.3 µM (inactive) | > 100 µM (inactive) | > 100 µM (inactive) | 33.9 µM (inactive) | > 100 µM (inactive) | 80.4 µM (inactive) | > 100 µM (inactive) | > 100 µM | > 100 µM (inactive) | > 100 µM (inactive) | > 100 µM (inactive) | > 100 µM (inactive) | > 100 µM (inactive) | 32.5 µM (inactive) | > 100 µM (inactive) | 49.1 µM (inactive) | > 100 µM (inactive) | > 100 µM (inactive)
O=C1OC(c2ccccc2)=N/C1=C\c1ccc(F)cc1 | – | 35.6 µM (inactive) | > 100 µM (inactive) | > 100 µM (inactive) | 22.2 µM (inactive) | > 100 µM (inactive) | > 100 µM (inactive) | > 100 µM (inactive) | > 100 µM (inactive) | > 100 µM | > 100 µM (inactive) | > 100 µM (inactive) | > 100 µM (inactive) | > 100 µM (inactive) | 97.3 µM (inactive) | > 100 µM (inactive) | > 100 µM (inactive) | 80.5 µM (inactive) | – | > 100 µM (inactive)
CCOC(=O)c1c(Br)c(-c2ccc([N+](=O)[O-])cc2)c(Br)n1C | > 10 µM (inactive) | > 10 µM (inactive) | > 10 µM (inactive) | 9.55 µM (inactive) | > 10 µM (inactive) | > 10 µM (inactive) | > 10 µM (inactive) | > 10 µM (inactive) | > 10 µM (inactive) | > 10 µM | > 10 µM (inactive) | > 10 µM (inactive) | > 10 µM (inactive) | > 10 µM (inactive) | > 10 µM (inactive) | > 10 µM (inactive) | – | > 10 µM (inactive) | > 10 µM (inactive) | > 10 µM (inactive)
CC(C)OP(=O)(OC(C)C)/C(C#N)=C/c1ccco1 | > 100 µM (inactive) | > 100 µM (inactive) | > 100 µM (inactive) | > 100 µM (inactive) | > 100 µM (inactive) | > 100 µM (inactive) | > 100 µM (inactive) | > 100 µM (inactive) | > 100 µM (inactive) | > 100 µM | > 100 µM (inactive) | > 100 µM (inactive) | > 100 µM (inactive) | > 100 µM (inactive) | > 100 µM (inactive) | > 100 µM (inactive) | > 100 µM (inactive) | > 100 µM (inactive) | > 100 µM (inactive) | > 100 µM (inactive)
N#CC1C=Cc2ccccc2N1C(=O)Oc1ccccc1 (centres undefined) | – | 42.5 µM (inactive) | 38.7 µM (inactive) | 42.4 µM (inactive) | – | 50.2 µM (inactive) | > 100 µM (inactive) | 56.5 µM (inactive) | 58.7 µM (inactive) | 42.1 µM | 23.7 µM (inactive) | 23.1 µM (inactive) | 84.3 µM (inactive) | 44.8 µM (inactive) | 40.6 µM (inactive) | 28.2 µM (inactive) | 36.2 µM (inactive) | 46.5 µM (inactive) | 69.8 µM (inactive) | 33.1 µM (inactive)
Nc1nc(N)c2c(n1)NC(c1ccccc1)CC(/C=C/c1ccc(Cl)cc1)=N2 (centres undefined) | 14.1 µM (inactive) | 6.64 µM (inactive) | 1.99 µM (inactive) | 4.32 µM (inactive) | 5.62 µM (inactive) | 10.8 µM (inactive) | 17 µM (inactive) | 3.11 µM (inactive) | 2.7 µM (inactive) | 5.97 µM | 3.59 µM (inactive) | 14.6 µM (inactive) | 7.87 µM (inactive) | 2.56 µM (inactive) | 6.41 µM (inactive) | 5.83 µM (inactive) | 10.4 µM (inactive) | 9.4 µM (inactive) | 15.5 µM (inactive) | 15.4 µM (inactive)
COc1cc2cc(C(=O)N3CC(CCl)c4c3cc(NC(=O)C(C)(C)c3ccccc3[N+](=O)[O-])c3ccccc43)[nH]c2c(OC)c1OC (centres undefined) | 1.67 µM (inactive) | 5.14 µM (inactive) | 0.393 µM (active) | 11.7 µM (inactive) | 82 µM (inactive) | 0.385 µM (active) | 2.77 µM (inactive) | 1.36 µM (inactive) | 5.43 µM (inactive) | 1.98 µM | 1.75 µM (inactive) | 6.93 µM (inactive) | 0.0687 µM (active) | 8.87 µM (inactive) | 3.08 µM (inactive) | 4.73 µM (inactive) | 1.09 µM (active) | 1.77 µM (inactive) | 4.78 µM (inactive) | 0.78 µM (active)
COc1cc(C(=O)OC2CC34CCNC35CC(OC5(OC)C2O)c2cc3c(cc24)OCO3)ccc1O (centres undefined) | > 100 µM (inactive) | > 100 µM (inactive) | > 100 µM (inactive) | > 100 µM (inactive) | > 100 µM (inactive) | > 100 µM (inactive) | > 100 µM (inactive) | > 100 µM (inactive) | > 100 µM (inactive) | > 100 µM | > 100 µM (inactive) | > 100 µM (inactive) | > 100 µM (inactive) | > 100 µM (inactive) | > 100 µM (inactive) | > 100 µM (inactive) | > 100 µM (inactive) | > 100 µM (inactive) | > 100 µM (inactive) | > 100 µM (inactive)
COc1c(O)cc2ccnc3c2c1N(C)C=C3 | 55 µM (inactive) | > 100 µM (inactive) | 67.3 µM (inactive) | > 100 µM (inactive) | > 100 µM (inactive) | 56.1 µM (inactive) | > 100 µM (inactive) | 83.8 µM (inactive) | 94.6 µM (inactive) | > 100 µM | > 100 µM (inactive) | > 100 µM (inactive) | > 100 µM (inactive) | > 100 µM (inactive) | > 100 µM (inactive) | > 100 µM (inactive) | 86.1 µM (inactive) | – | – | > 100 µM (inactive)
Cc1cc2c(c(S(=O)(=O)c3ccccc3[N+](=O)[O-])c1)NCCC2 | 55.6 µM (inactive) | > 100 µM (inactive) | – | > 100 µM (inactive) | 65.2 µM (inactive) | 28.9 µM (inactive) | > 100 µM (inactive) | > 100 µM (inactive) | > 100 µM (inactive) | 33.7 µM | 25.6 µM (inactive) | 51.4 µM (inactive) | – | > 100 µM (inactive) | 23.5 µM (inactive) | 6.44 µM (inactive) | > 100 µM (inactive) | 18.7 µM (inactive) | > 100 µM (inactive) | > 100 µM (inactive)
O=C1CC(c2ccccc2Cl)Oc2ccccc21 (centres undefined) | 40.6 µM (inactive) | 3.84 µM (inactive) | 45 µM (inactive) | 14 µM (inactive) | – | – | – | 29 µM (inactive) | 25.4 µM (inactive) | 24.7 µM | 18.5 µM (inactive) | 19.9 µM (inactive) | 40.9 µM (inactive) | 98.6 µM (inactive) | 51.9 µM (inactive) | 43 µM (inactive) | 25.5 µM (inactive) | 32.8 µM (inactive) | 16 µM (inactive) | > 100 µM (inactive)
COc1cc2c[n+](C)c3c(c2cc1OC)Cc1cc2c(cc1-3)OCO2 | > 100 µM (inactive) | > 100 µM (inactive) | > 100 µM (inactive) | > 100 µM (inactive) | > 100 µM (inactive) | – | > 100 µM (inactive) | > 100 µM (inactive) | > 100 µM (inactive) | > 100 µM | > 100 µM (inactive) | > 100 µM (inactive) | > 100 µM (inactive) | > 100 µM (inactive) | 87.3 µM (inactive) | > 100 µM (inactive) | > 100 µM (inactive) | > 100 µM (inactive) | > 100 µM (inactive) | > 100 µM (inactive)

Reference: ChEMBL document CHEMBL1201862, “PubChem BioAssay data set” (2004)
